Assay results reported in PubChem BioAssay (NCI).
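Abbreviation: GI50, concentration required for 50% inhibition of growth. TGI marks complete inhibition of growth.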

Experiments:
Test in all cases: NCI-60 cell line screen, 384-well format
[1] = test system: SNB-19 CNS
[2] = test system: M14 melanoma
[3] = test system: T-47D breast
[4] = test system: SF-295 CNS
[5] = test system: HCT-116 colon
[6] = test system: SN12C renal
[7] = test system: NCI-H23 lung
[8] = test system: MDA-MB-468 breast
[9] = test system: CCRF-CEM leukemia
[10] = test system: NCI-H460 NSCLC
[11] = test system: HOP-92 NSCLC
[12] = test system: SK-MEL-2 melanoma
[13] = test system: OVCAR-4 ovarian
[14] = test system: RXF 393 renal
[15] = test system: HCC-2998 colon
[16] = test system: MALME-3M melanoma
[17] = test system: PC-3 prostate
[18] = test system: ACHN renal
[19] = test system: OVCAR-3 ovarian
[20] = test system: COLO 205 colon
[21] = test system: HL-60(TB) leukemia
[22] = test system: KM12 colon
[23] = test system: HOP-62 NSCLC
[24] = test system: RPMI-8226 leukemia
[25] = test system: UACC-62 melanoma
[26] = test system: OVCAR-8 ovarian
[27] = test system: SR leukemia
[28] = test system: SK-OV-3 ovarian
[29] = test system: U251 glioblastoma
[30] = test system: SF-539 CNS
[31] = test system: NCI/ADR-RES ovarian
[32] = test system: DU-145 prostate
[33] = test system: OVCAR-5 ovarian
[34] = test system: UO-31 renal
[35] = test system: NCI-H322M lung
[36] = test system: K-562 leukemia
[37] = test system: MOLT-4 leukemia
[38] = test system: TK-10 renal
[39] = test system: MCF7 breast
[40] = test system: A549 NSCLC
[41] = test system: NCI-H522 lung
[42] = test system: LOX IMVI melanoma
[43] = test system: 786-0 renal
[44] = test system: NCI-H226 lung
[45] = test system: MDA-MB-231 breast
[46] = test system: MDA-MB-435 melanoma
[47] = test system: A498 renal
[48] = test system: HCT-15 colon
[49] = test system: HT29 colon
[50] = test system: SW-620 colon
[51] = test system: CAKI-1 renal
[52] = test system: UACC-257 melanoma
[53] = test system: BT-549 breast
[54] = test system: SF-268 CNS
[55] = test system: SK-MEL-28 melanoma
[56] = test system: SK-MEL-5 melanoma

`CCN1C(C)(C)CC(Oc2ccc(C(=O)Nc3ccc(NC(=O)Nc4cc(C(C)(C)C)on4)cc3)nc2)CC1(C)C` was tested, and the GI50 [1] was 1.98 µM, the TGI [1] was 3.48 µM and the GI50 [2] was 1.71 µM. For the same molecule, the TGI [2] was 3.09 µM, the GI50 [3] was 1.43 µM and the TGI [3] was 2.79 µM. The GI50 [4] was 1.84 µM, the TGI [4] was 3.25 µM and the GI50 [5] was 1.63 µM. For the same molecule, the TGI [5] was 3.01 µM, the GI50 [6] was 1.71 µM and the TGI [6] was 3.09 µM. The GI50 [7] was 3.33 µM, the TGI [7] was 8.85 µM and the GI50 [8] was 2.03 µM. The TGI [8] was 3.56 µM, the GI50 [9] was 1.8 µM and the TGI [9] was 3.2 µM. The GI50 [10] was 1.8 µM, the TGI [10] was 3.24 µM and the GI50 [11] was 1.65 µM. The TGI [11] was 3.16 µM, the GI50 [12] was 1.25 µM and the TGI [12] was 2.5 µM. The GI50 [13] was 1.56 µM, the TGI [13] was 3.77 µM and the GI50 [14] was 0.384 µM. It also gave a TGI [14] of 1.47 µM, a GI50 [15] of 1.6 µM and a TGI [15] of 2.98 µM. The GI50 [16] was 1.41 µM, the TGI [16] was 2.72 µM and the GI50 [17] was 1.95 µM. The TGI [17] was 3.5 µM, the GI50 [18] was 1.75 µM and the TGI [18] was 3.2 µM. It also gave a GI50 [19] of 1.69 µM, a TGI [19] of 3.1 µM and a GI50 [20] of 1.79 µM. The TGI [20] was 3.2 µM, the GI50 [21] was 2.51 µM and the TGI [21] was 5.71 µM. The GI50 [22] was 1.74 µM, the TGI [22] was 3.14 µM and the GI50 [23] was 1.88 µM. It also gave a TGI [23] of 3.34 µM, a GI50 [24] of 0.654 µM and a TGI [24] of 1.75 µM. The GI50 [25] was 1.87 µM, the TGI [25] was 3.29 µM and the GI50 [26] was 1.77 µM. The TGI [26] was 3.19 µM, the GI50 [27] was 1.29 µM and the TGI [27] was 2.57 µM. For the same molecule, the GI50 [28] was 1.71 µM, the TGI [28] was 3.1 µM and the GI50 [29] was 1.65 µM. It also gave a TGI [29] of 3.03 µM, a GI50 [30] of 1.3 µM and a TGI [30] of 2.58 µM. It also gave a GI50 [31] of 1.82 µM, a TGI [31] of 3.72 µM and a GI50 [32] of 1.88 µM. For the same molecule, the TGI [32] was 3.49 µM, the GI50 [33] was 2.08 µM and the TGI [33] was 3.84 µM. For the same molecule, the GI50 [34] was 1.76 µM, the TGI [34] was 3.21 µM and the GI50 [35] was 2.02 µM. It also gave a TGI [35] of 4.14 µM, a GI50 [36] of 1.6 µM and a TGI [36] of 2.97 µM. It also gave a GI50 [37] of 1.67 µM, a TGI [37] of 3.06 µM and a GI50 [38] of 1.92 µM. For the same molecule, the TGI [38] was 3.87 µM, the GI50 [39] was 1.55 µM and the TGI [39] was 2.91 µM. For the same molecule, the GI50 [40] was 1.83 µM, the TGI [40] was 3.32 µM and the GI50 [41] was 1.77 µM. It also gave a TGI [41] of 3.16 µM, a GI50 [42] of 1.86 µM and a TGI [42] of 3.27 µM. It also gave a GI50 [43] of 1.52 µM, a TGI [43] of 2.87 µM and a GI50 [44] of 1.68 µM. For the same molecule, the TGI [44] was 3.08 µM, the GI50 [45] was 1.77 µM and the TGI [45] was 3.23 µM. It also gave a GI50 [46] of 2 µM, a TGI [46] of 3.44 µM and a GI50 [47] of 1.6 µM. It also gave a TGI [47] of 3.02 µM, a GI50 [48] of 1.61 µM and a TGI [48] of 2.99 µM. It also gave a GI50 [49] of 0.832 µM, a TGI [49] of 2.09 µM and a GI50 [50] of 1.94 µM. It also gave a TGI [50] of 3.38 µM, a GI50 [51] of 1.62 µM and a TGI [51] of 3.22 µM. For the same molecule, the GI50 [52] was 1.33 µM, the TGI [52] was 2.61 µM and the GI50 [53] was 1.55 µM. For the same molecule, the TGI [53] was 2.9 µM, the GI50 [54] was 1.68 µM and the TGI [54] was 3.11 µM. It also gave a GI50 [55] of 1.58 µM, a TGI [55] of 2.94 µM and a GI50 [56] of 1.52 µM. The TGI [56] was 2.86 µM.
